Article PMC5471452, “Optical control of a receptor-linked guanylyl cyclase using a photoswitchable peptidic hormone” (Chemical Science, 2017)

Columns and labels:
[1] = tested on: pancreatic beta cells in islets of Langerhans; assay: Calcium imaging of beta cells in intact islets of Langerhans; format: cell-based, CD1 mice; conditions: for effect on amplitude of intracellular Ca2+ fluxes in beta cells, in words: intact islets, 8 mM glucose, ANP 0.1–100 nM, TOP271 isomers 1–100 nM, n = 4–6 islets for each concentration
Method: Reversibility could be achieved by applying cis-TOP271 and then illuminating with blue light (λ = 458–482 nm) to induce trans-isomerisation (Fig. 4i and j). Restoration of beta cell function was only partial (Fig. 4j), however, possibly due to cGMP-mediated sequestration of Ca^2+ into internal stores such as the endoplasmic reticulum.[61] […]
CD1 mice were maintained in a specific pathogen-free facility under a 12 h light–dark cycle with ad libitum access to water and food. Animals were euthanized by cervical dislocation and islets isolated using collagenase digestion. Islets were cultured overnight in Roswell Park Memorial Institute (RPMI) medium supplemented with 10% foetal calf serum and 100 U/mL penicillin and 100 µg/mL streptomycin. No randomization was used for animal experimentation, since mice were only used as tissue donors.
Experimental protocols were approved by the University of Birmingham's Animal Welfare and Ethical Review Body (AWERB) and carried out in accordance with the Animals (Scientific Procedures) Act 1986 of the United Kingdom.
Islets were loaded for 40 min with Fluo8 (AAT Bioquest, Sunnyvale, CA, USA), before imaging using a Crest X-Light spinning disk head coupled to a Nikon Ti-E automated base and 10 x/0.4 NA objective. Pulsed excitation was delivered at λ = 458–482 nm (400 ms exposure; 0.33 Hz) via a Lumencor Spectra X Light Engine, and emitted signals detected at λ = 500–550 nm using a Photometrics Evolve Delta 512 EMCCD.
Illumination to induce photoswitching was performed using either continuous exposure to λ = 458–482 nm or λ = 382–407 nm. In all cases, HEPES-bicarbonate buffer was used, containing in mM: 120 NaCl, 4.8 KCl, 24 NaHCO3, 0.5 Na2HPO4, 5 HEPES, 2.5 CaCl2, 1.2 MgCl2, 8 D-glucose. Ca2+ traces were normalized as F/Fmin (F = fluorescence at any given timepoint; Fmin = minimum fluorescence) and relative change in this value over time denoted by a scale bar.
Non-multifactorial comparisons were made using Student’s t-test. Multifactorial comparisons were prepared using one-way ANOVA. Log-transformed concentration-response curves were fitted using non-linear regression and the Hill equation. All analyses were conducted using Graphpad Prism (Graphpad software) and IgorPro (WaveMetrics software), and results deemed significant * at P<0.05 or ** at P<0.01.

[2] = ex vivo or in vivo, depending on cell environment or azoreductase expression; cited from earlier work
Excerpt: Acting via the NPR-A receptor to generate cGMP, TOP271 allows the reversible photocontrol of contraction/dilation in aortic tissue, as well as Ca^2+ oscillations in rodent islets of Langerhans. Although photodependent cGMP synthesis was described earlier, these approaches rely on the genetically-encoded photosensitive proteins EROS[64],[65] or BeCyclOps,[66],[67] whereas TOP271 allows unprecedented photocontrolled cGMP synthesis in nativ ...

NPR-A = target: T1, NPR-A (Homo sapiens, UniProt P16066); assay: cGMP assay (HTRF) in HEK293T cells transiently transfected with NPR-A; format: cell-based; conditions: in vitro
T1 construct: expressed in transfected cells; host or cells: HEK293t cells (DSMZ #305), transiently co-transfected with pCMV5_GC-A and YFP
T1 sequence (P16066 33-1061): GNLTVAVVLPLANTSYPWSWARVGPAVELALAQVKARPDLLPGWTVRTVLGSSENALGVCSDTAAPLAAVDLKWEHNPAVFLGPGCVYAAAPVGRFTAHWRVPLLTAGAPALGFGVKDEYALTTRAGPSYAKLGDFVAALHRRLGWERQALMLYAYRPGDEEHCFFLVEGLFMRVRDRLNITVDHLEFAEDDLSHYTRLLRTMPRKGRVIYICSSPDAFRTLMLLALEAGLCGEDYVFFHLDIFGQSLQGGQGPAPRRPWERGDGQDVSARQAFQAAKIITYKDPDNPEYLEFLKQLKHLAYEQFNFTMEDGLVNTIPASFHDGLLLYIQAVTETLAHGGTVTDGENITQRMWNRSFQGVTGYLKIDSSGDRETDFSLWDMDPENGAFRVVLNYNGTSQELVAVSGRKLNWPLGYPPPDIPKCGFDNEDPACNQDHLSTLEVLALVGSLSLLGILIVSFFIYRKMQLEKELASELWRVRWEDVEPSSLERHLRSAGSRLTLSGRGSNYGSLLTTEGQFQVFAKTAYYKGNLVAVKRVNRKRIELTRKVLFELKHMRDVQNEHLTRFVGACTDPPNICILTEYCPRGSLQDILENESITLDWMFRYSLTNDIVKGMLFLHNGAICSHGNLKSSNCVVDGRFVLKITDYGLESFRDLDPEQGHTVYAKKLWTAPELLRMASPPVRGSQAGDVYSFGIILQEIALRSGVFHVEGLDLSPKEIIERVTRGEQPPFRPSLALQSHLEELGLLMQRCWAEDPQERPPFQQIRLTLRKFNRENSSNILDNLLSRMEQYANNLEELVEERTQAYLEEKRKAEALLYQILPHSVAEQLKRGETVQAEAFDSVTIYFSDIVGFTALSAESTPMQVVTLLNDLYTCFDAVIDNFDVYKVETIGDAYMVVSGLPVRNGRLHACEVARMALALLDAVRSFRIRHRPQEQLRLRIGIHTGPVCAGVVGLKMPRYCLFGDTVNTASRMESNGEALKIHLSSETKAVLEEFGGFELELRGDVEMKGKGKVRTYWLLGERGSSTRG
Method: To test cGMP synthesis, each peptide was applied as the trans- or cis-isomer by keeping them either in the dark or pre-illuminating with UV light (λ = 365 nm) for 15 minutes, respectively.
cGMP assay in transiently transfected HEK293t cells
HEK293t cells (obtained from the Leibniz-Institute DSMZ, Braunschweig, Germany, #305, regularly mycoplasma tested) were transfected with pCMV5_GC-A 4 and YFP using Lipofectamine 2000® (Life Science, Indianapolis, IN, USA) at >80% confluency in a T25 flask according to the manufacturer’s instructions. After 24 h, cells were checked by means of YFP fluorescence for successful transfection (>70% efficiency), washed once and harvested with 1 mL Hepes-Krebs-Ringer (HKR) buffer (containing in mM: 135 NaCl, 5 KCl, 1 MgSO4, 0.4 K2HPO4, 5.5 D-glucose, 20 HEPES, 1 CaCl2, pH = 7.4) supplemented with PDE inhibitors IBMX (500 µM, Tocris, Bristol, UK, #2840) and Ro
µL of cell solution was pipetted into each well of a 384-well plate (white, flat bottom, Greiner, Frickenhausen, Germany). […] The resulting assays were incubated for 30 min before they were lysed and treated with a cGMP HTRF kit (Cisbio, Codolet, France) according to the manufacturer’s instructions. cGMP levels were read with a Omega platereader (BMG Labtech, Offenburg, Germany) after 1 h of incubation time and normalized according to the cGMP standards. […]

[3] = tested on: murine thoracic aortic rings; assay: Aortic tensometry, pre-constricted aortic rings; set-up: species or system C57BL/6 mice; conditions: for vasodilation of pre-constricted aortic rings, in words: rings pre-contracted with 1 µM phenylephrine, 200 μM L-NAME and 3 μM diclofenac present, n = 6 aortic rings from 4 animals
Method: We next sought to address whether TOP271 would allow the optical control of cGMP-dependent processes in a physiologically relevant system, i.e. the aortic ring preparation. […] Accordingly, we predicted that TOP271 would allow reversible, light-controlled vasoactive responses, with cis-TOP271 being the stronger effector at specific concentrations. […] Although this concentration–response indicated a significant difference in receptor activation for 100 nM TOP271, we decided to use 400 nM TOP271 to trigger a stronger isomer-dependent vasodilation.
Fig. 3 TOP271 allows photocontrol of aortic tissue. (a) Concentration-response curves for trans- and cis-TOP271. (b) Aortic relaxation for cycles in (d) and (e). […] (d, e) Reversible photocontrol over aortic tension by application of trans-TOP271 (d) and cis-TOP271 (e) with UV-/blue and blue/UV-light (365 and 460 nm) cycles, respectively. All experiments were conducted in the presence of 200 μM N-ω-nitro-L-arginine methyl ester (L-NAME) and 3 μM diclofenac, which were used to block the vascular relaxants nitric oxide and prostacyclin, respectively. PE = phenylephrine was used for initial vasoconstriction, IBMX = 3-iso-butyl-1-methylxanthine was used to induce complete muscular relaxation as an end point control. (n = 6 aortic rings from 4 animals) (*P < 0.05, **P < 0.01, repeated measures Student's t-test). Values represent the mean ± SEM. […]
Murine thoracic aortic rings were mounted in a myograph as described recently16. In detail, thoracic aortas from C57BL/6 mice were explanted and cut into rings and mounted on fixed segment support pins in two four-chamber Myograph 610 (Danish Myo Technology, Aarhus, Denmark) containing 5 ml of Krebs–Henseleit solution (containing […]
glucose, pH 7.4), bubbled with 95% O2 and 5% CO2. Resting tension was set to 5 mN in the presence of Diclofenac (3 µM) and N-nitro-L-arginine methyl ester (L-NAME) (200 µM). After equilibration (45 minutes at 37 °C), rings were pre-contracted with 1 µM phenylephrine (PE). Since aortic ring myography is sensitive to temperature fluctuations, effects of direct and indirect illumination on vasoactivity were determined. […] The vasorelaxing effects of pre-illuminated cis- and dark trans-TOP271 were assessed once a steady plateau was reached. […]
were prepared (10 mM in water), of which an aliquot of TOP271 was either pre-illuminated at λ = 365 nm using a UVP 3UV benchtop UV lamp to obtain the cis-isomer, or kept in the dark to maintain the trans-isomer. […] Read-out was conducted in between illumination cycles as soon as a steady plateau was reached to exclude any light dilational effects. […]

[4] = in benzene at 0 °C; cited from earlier work
Method: As expected for an electron-poor azobenzene, all peptides were bistable (TOP271 Fig. 2c, TOP263-270 ESI Fig. 3 ^†). ^¶ ¶All peptides are available for academic use from the Hoffmann-Röder lab upon request. This advantageous trait allows samples to be pre-illuminated prior to application rather than needing constant illumination. […], and because the compounds were bistable, the initial back-relaxation was obtained as a linear function from the first 30 min after ceasing illumination. P ...

CC[C@H](C)[C@@H]1NC(=O)[C@H](CCCNC(=N)N)NC(=O)[C@H](CC(=O)O)NC(=O)[C@H](CCSC)NC(=O)[C@H](CCCNC(=N)N)NC(=O)CNC(=O)CNC(=O)[C@H](Cc2ccccc2)NC(=O)[C@@H](NC(=O)[C@H](CO)NC(=O)[C@H](CO)NC(=O)[C@H](CCCNC(=N)N)NC(=O)[C@H](CCCNC(=N)N)NC(=O)[C@H](CC(C)C)NC(=O)[C@@H](N)CO)CSSC[C@@H](C(=O)N[C@@H](CC(N)=O)C(=O)N[C@@H](CO)C(=O)N[C@@H](Cc2ccccc2)C(=O)N[C@@H](CCCNC(=N)N)C(=O)N[C@@H](Cc2ccc(O)cc2)C(=O)O)NC(=O)CNC(=O)[C@H](CC(C)C)NC(=O)CNC(=O)[C@H](CO)NC(=O)[C@H](CCC(N)=O)NC(=O)[C@H](C)NC(=O)CNC1=O [ANP, human atrial natriuretic peptide, reference compound]
effect on amplitude of intracellular Ca2+ fluxes in beta cells, in words [1]: suppressed beta cell function
pancreatic beta cell Ca2+ spiking frequency ([1]; low (0.1 nm) but not high (10 nm) concentration, n = 5-7 islets for each concentration): stimulate increases

CCN(CC)c1ccc(/N=N/c2ccc(S(=O)(=O)NC(=O)NC3CCCCC3)cc2)cc1 [JB253]
degradation of the diazene unit [2]: not the case

CC[C@H](C)[C@@H]1NC(=O)[C@H](CCCNC(=N)N)NC(=O)[C@H](CC(=O)O)NC(=O)[C@H](CCSC)NC(=O)[C@H](CCCNC(=N)N)NC(=O)CNC(=O)CNC(=O)[C@H](Cc2ccccc2)NC(=O)[C@@H](NC(=O)[C@H](CO)NC(=O)[C@H](CO)NC(=O)[C@H](CCCNC(=N)N)NC(=O)[C@H](CCCNC(=N)N)NC(=O)[C@H](CC(C)C)NC(=O)[C@@H](N)CO)CSSC[C@@H](C(=O)N[C@@H](CC(N)=O)C(=O)N[C@@H](CO)C(=O)N[C@@H](Cc2ccccc2)C(=O)N[C@@H](CCCNC(=N)N)C(=O)N[C@@H](Cc2ccc(O)cc2)C(=O)O)NC(=O)Cc2cccc(c2)/N=N\c2cccc(c2)CNC(=O)[C@H](CCC(N)=O)NC(=O)[C@H](C)NC(=O)CNC1=O [cis-TOP271]
restoration of beta cell function after blue light (458–482 nm) trans-isomerisation ([1]; cis-TOP271 applied, then blue light, n = 5 islets): only partial
effect on amplitude of intracellular Ca2+ fluxes in beta cells, in words [1]: robustly suppressed Ca^2+ rises
fold higher potency of cis- over trans-isomer for cGMP generation (NPR-A): 4 fold
speed of the initial vasodilation, cis- compared to trans-TOP271 ([3]; 400 nM, aortic rings): 1.5 ×
vasodilation of pre-constricted aortic rings, in words ([3]; 400 nM): potent vasodilation
vasodilation concentration-response, cis- versus trans-isomer ([3]; pre-illuminated isomers, 100 nM to 1 μM range, pre-constricted aortic rings): increased potency

CC[C@H](C)[C@@H]1NC(=O)[C@H](CCCNC(=N)N)NC(=O)[C@H](CC(=O)O)NC(=O)[C@H](CCSC)NC(=O)[C@H](CCCNC(=N)N)NC(=O)CNC(=O)CNC(=O)[C@H](Cc2ccccc2)NC(=O)[C@@H](NC(=O)[C@H](CO)NC(=O)[C@H](CO)NC(=O)[C@H](CCCNC(=N)N)NC(=O)[C@H](CCCNC(=N)N)NC(=O)[C@H](CC(C)C)NC(=O)[C@@H](N)CO)CSSC[C@@H](C(=O)N[C@@H](CC(N)=O)C(=O)N[C@@H](CO)C(=O)N[C@@H](Cc2ccccc2)C(=O)N[C@@H](CCCNC(=N)N)C(=O)N[C@@H](Cc2ccc(O)cc2)C(=O)O)NC(=O)Cc2cccc(c2)/N=N/c2cccc(c2)CNC(=O)[C@H](CCC(N)=O)NC(=O)[C@H](C)NC(=O)CNC1=O [trans-TOP271]
effect on amplitude of intracellular Ca2+ fluxes in beta cells, in words [1]: only a small decrease
vasodilation of pre-constricted aortic rings, in words ([3]; 400 nM): strong vasodilation

c1ccc(/N=N/c2ccccc2)cc1 [unsubstituted azobenzene, azobenzene]
k obs thermal relaxation [4]: 3.58 × 10^–4 a.u. min^–1
